Assay results: ChEMBL document CHEMBL3885881, “DrugMatrix”

Organism: Rattus norvegicus
Assay: DrugMatrix - Regimen: Daily Repeat
Type: toxicity, organism-based, Sprague-Dawley
Set-up: regimen Daily Repeat, gender Male, age 6-8 weeks
Settings: in vivo, po, route oral GAVAGE, vehicle .5 % CMC; for ABSOLUTE BASOPHIL / ABSOLUTE EOSINOPHIL / ABSOLUTE LYMPHOCYTE / ABSOLUTE MONOCYTE / ABSOLUTE SEGMENTED NEUTROPHIL / BASOPHIL / EOSINOPHIL / ERYTHROCYTE COUNT / HEMATOCRIT / HEMOGLOBIN / LEUKOCYTE COUNT / LYMPHOCYTE / MEAN CORPUSCULAR HEMOGLOBIN / MEAN CORPUSCULAR HEMOGLOBIN CONCENTRATION / MEAN CORPUSCULAR VOLUME / MONOCYTE / NEUTROPHIL / NUCLEATED RED BLOOD CELLS / PLATELET COUNT: tissue Blood; for ALANINE AMINOTRANSFERASE / ALBUMIN / ASPARTATE AMINOTRANSFERASE / BLOOD UREA NITROGEN / CARBON DIOXIDE / CHLORIDE / CREATINE PHOSPHOKINASE / CREATININE / GLUCOSE / LACTATE DEHYDROGENASE / LIPASE / PHOSPHORUS / POTASSIUM / SODIUM / TOTAL BILIRUBIN / TOTAL PROTEIN: tissue Plasma
[1] = 16 mg/kg, 72 h, dose level Low, time 3 day
[2] = 16 mg/kg, 120 h, dose level Low, time 5 day
[3] = 2500 mg/kg, 72 h, dose level High, time 3 day
[4] = 2500 mg/kg, 120 h, dose level High, time 5 day

Compound: CC1=C(C(=O)O)N2C(=O)[C@@H](NC(=O)[C@H](N)c3ccccc3)[C@H]2SC1 [CEPHALEXIN ANHYDROUS]
- ABSOLUTE BASOPHIL [1]: 0 CELLS/uL
- ABSOLUTE EOSINOPHIL [1]: 0 CELLS/uL
- ABSOLUTE LYMPHOCYTE [1]: 17436 CELLS/uL
- ABSOLUTE MONOCYTE [1]: 124 CELLS/uL
- ABSOLUTE SEGMENTED NEUTROPHIL [1]: 706.67 CELLS/uL
- BASOPHIL [1]: 0%
- EOSINOPHIL [1]: 0%
- ERYTHROCYTE COUNT [1]: 5.81 x10E6/uL
- HEMATOCRIT [1]: 35.97%
- HEMOGLOBIN [1]: 13.93 G/DL
- LEUKOCYTE COUNT [1]: 18.27 x10E3/uL
- LYMPHOCYTE [1]: 95.33%
- MEAN CORPUSCULAR HEMOGLOBIN [1]: 24.03 pg
- MEAN CORPUSCULAR HEMOGLOBIN CONCENTRATION [1]: 38.8 G/DL
- MEAN CORPUSCULAR VOLUME [1]: 61.97 fL
- MONOCYTE [1]: 0.67%
- NEUTROPHIL [1]: 4%
- NUCLEATED RED BLOOD CELLS [1]: 0 /100WBC
- PLATELET COUNT [1]: 1279 x10E3/uL
- ALANINE AMINOTRANSFERASE [1]: 50.33 u/L
- ALBUMIN [1]: 4.13 G/DL
- ASPARTATE AMINOTRANSFERASE [1]: 86.67 u/L
- BLOOD UREA NITROGEN [1]: 14.33 mg/dL
- CARBON DIOXIDE [1]: 30 mmol/L
- CHLORIDE [1]: 101 MEQ/L
- CREATINE PHOSPHOKINASE [1]: 208 u/L
- CREATININE [1]: 0.23 mg/dL
- GLUCOSE [1]: 163.33 mg/dL
- LACTATE DEHYDROGENASE [1]: 208.33 u/L
- LIPASE [1]: 9 u/L
- PHOSPHORUS [1]: 13.27 mg/dL
- POTASSIUM [1]: 7.33 MEQ/L
- SODIUM [1]: 146.17 MEQ/L
- TOTAL BILIRUBIN [1]: 0.17 mg/dL
- TOTAL PROTEIN [1]: 5.9 G/DL
- ABSOLUTE BASOPHIL [2]: 0 CELLS/uL
- ABSOLUTE EOSINOPHIL [2]: 0 CELLS/uL
- ABSOLUTE LYMPHOCYTE [2]: 13406.33 CELLS/uL
- ABSOLUTE MONOCYTE [2]: 44 CELLS/uL
- ABSOLUTE SEGMENTED NEUTROPHIL [2]: 716.33 CELLS/uL
- BASOPHIL [2]: 0%
- EOSINOPHIL [2]: 0%
- ERYTHROCYTE COUNT [2]: 5.62 x10E6/uL
- HEMATOCRIT [2]: 33.87%
- HEMOGLOBIN [2]: 13.33 G/DL
- LEUKOCYTE COUNT [2]: 14.17 x10E3/uL
- LYMPHOCYTE [2]: 94.67%
- MEAN CORPUSCULAR HEMOGLOBIN [2]: 23.63 pg
- MEAN CORPUSCULAR HEMOGLOBIN CONCENTRATION [2]: 39.33 G/DL
- MEAN CORPUSCULAR VOLUME [2]: 60.17 fL
- MONOCYTE [2]: 0.33%
- NEUTROPHIL [2]: 5%
- NUCLEATED RED BLOOD CELLS [2]: 0 /100WBC
- PLATELET COUNT [2]: 900 x10E3/uL
- ALANINE AMINOTRANSFERASE [2]: 49 u/L
- ALBUMIN [2]: 4.2 G/DL
- ASPARTATE AMINOTRANSFERASE [2]: 98 u/L
- BLOOD UREA NITROGEN [2]: 14.67 mg/dL
- CARBON DIOXIDE [2]: 24 mmol/L
- CHLORIDE [2]: 103.33 MEQ/L
- CREATINE PHOSPHOKINASE [2]: 652.67 u/L
- CREATININE [2]: 0.25 mg/dL
- GLUCOSE [2]: 200.67 mg/dL
- LACTATE DEHYDROGENASE [2]: 425.67 u/L
- LIPASE [2]: 9 u/L
- PHOSPHORUS [2]: 13.2 mg/dL
- POTASSIUM [2]: 6.1 MEQ/L
- SODIUM [2]: 146.5 MEQ/L
- TOTAL BILIRUBIN [2]: 0.17 mg/dL
- TOTAL PROTEIN [2]: 6.13 G/DL
- ABSOLUTE BASOPHIL [3]: 0 CELLS/uL
- ABSOLUTE EOSINOPHIL [3]: 47.67 CELLS/uL
- ABSOLUTE LYMPHOCYTE [3]: 14295 CELLS/uL
- ABSOLUTE MONOCYTE [3]: 55 CELLS/uL
- ABSOLUTE SEGMENTED NEUTROPHIL [3]: 435.67 CELLS/uL
- BASOPHIL [3]: 0%
- EOSINOPHIL [3]: 0.33%
- ERYTHROCYTE COUNT [3]: 5.55 x10E6/uL
- HEMATOCRIT [3]: 35.7%
- HEMOGLOBIN [3]: 14 G/DL
- LEUKOCYTE COUNT [3]: 14.83 x10E3/uL
- LYMPHOCYTE [3]: 96.33%
- MEAN CORPUSCULAR HEMOGLOBIN [3]: 25.23 pg
- MEAN CORPUSCULAR HEMOGLOBIN CONCENTRATION [3]: 39.2 G/DL
- MEAN CORPUSCULAR VOLUME [3]: 64.3 fL
- MONOCYTE [3]: 0.33%
- NEUTROPHIL [3]: 3%
- NUCLEATED RED BLOOD CELLS [3]: 0 /100WBC
- PLATELET COUNT [3]: 1231 x10E3/uL
- ALANINE AMINOTRANSFERASE [3]: 67.33 u/L
- ALBUMIN [3]: 3.93 G/DL
- ASPARTATE AMINOTRANSFERASE [3]: 82.67 u/L
- BLOOD UREA NITROGEN [3]: 16 mg/dL
- CARBON DIOXIDE [3]: 31.67 mmol/L
- CHLORIDE [3]: 100.33 MEQ/L
- CREATINE PHOSPHOKINASE [3]: 209 u/L
- CREATININE [3]: 0.17 mg/dL
- GLUCOSE [3]: 140 mg/dL
- LACTATE DEHYDROGENASE [3]: 154.67 u/L
- LIPASE [3]: 9 u/L
- PHOSPHORUS [3]: 10.93 mg/dL
- POTASSIUM [3]: 6.36 MEQ/L
- SODIUM [3]: 145.43 MEQ/L
- TOTAL BILIRUBIN [3]: 0.2 mg/dL
- TOTAL PROTEIN [3]: 5.67 G/DL
- ABSOLUTE BASOPHIL [4]: 0 CELLS/uL
- ABSOLUTE EOSINOPHIL [4]: 48.67 CELLS/uL
- ABSOLUTE LYMPHOCYTE [4]: 11635.33 CELLS/uL
- ABSOLUTE MONOCYTE [4]: 0 CELLS/uL
- ABSOLUTE SEGMENTED NEUTROPHIL [4]: 2649.33 CELLS/uL
- BASOPHIL [4]: 0%
- EOSINOPHIL [4]: 0.33%
- ERYTHROCYTE COUNT [4]: 5.85 x10E6/uL
- HEMATOCRIT [4]: 35.6%
- HEMOGLOBIN [4]: 13.87 G/DL
- LEUKOCYTE COUNT [4]: 14.33 x10E3/uL
- LYMPHOCYTE [4]: 81.67%
- MEAN CORPUSCULAR HEMOGLOBIN [4]: 23.8 pg
- MEAN CORPUSCULAR HEMOGLOBIN CONCENTRATION [4]: 38.93 G/DL
- MEAN CORPUSCULAR VOLUME [4]: 61.07 fL
- MONOCYTE [4]: 0%
- NEUTROPHIL [4]: 18%
- NUCLEATED RED BLOOD CELLS [4]: 0 /100WBC
- PLATELET COUNT [4]: 1275.33 x10E3/uL
- ALANINE AMINOTRANSFERASE [4]: 101.33 u/L
- ALBUMIN [4]: 4.23 G/DL
- ASPARTATE AMINOTRANSFERASE [4]: 94.67 u/L
- BLOOD UREA NITROGEN [4]: 18.33 mg/dL
- CARBON DIOXIDE [4]: 28 mmol/L
- CHLORIDE [4]: 105.33 MEQ/L
- CREATINE PHOSPHOKINASE [4]: 302 u/L
- CREATININE [4]: 0.24 mg/dL
- GLUCOSE [4]: 174.67 mg/dL
- LACTATE DEHYDROGENASE [4]: 98.67 u/L
- LIPASE [4]: 9.67 u/L
- PHOSPHORUS [4]: 11.77 mg/dL
- POTASSIUM [4]: 5.92 MEQ/L
- SODIUM [4]: 150.03 MEQ/L
- TOTAL BILIRUBIN [4]: 0.17 mg/dL
- TOTAL PROTEIN [4]: 5.97 G/DL
